Laboratory results reported in patent US12005072B2, “HIV drug combination for increasing barrier against resistance” (Merck Sharp & Dohme LLC, priority 2018, dated 2024).

Experiments:
WT virus = assay: Susceptibility of virus to NRTIs (antiviral potency), Example 1; type: cell-based, HIV-1; conditions: for EC50: Human immunodeficiency virus 1
Procedure: (§1) Common doravirine-associated mutants containing F227C substitution were derived from SDM. The experimental conditions for susceptibility evaluation are described in Lai, Ming-Tain, et al., In Vitro Characterization of MK-1439, a Novel HIV-1 Nonnucleoside Reverse Transcriptase Inhibitor. Antimicrobial Agents and Chemotherapy 58(3): 1652-1663, 2014. These mutants conferred more than 100-fold of resistance to DOR. The susceptibility of the mutants to EFdA and 3TC was also evaluated under the same conditions. […] In contrast, the mutants are hypersusceptible to EFdA with 2-5 fold increase in susceptibility with all mutants except the quardruple mutant.

[1] = tested on: A98G/V106I/H221Y/F227C mutant; assay: Susceptibility of SDM derived DOR-resistant mutant to NRTIs, Example 1; type: cell-based, HIV-1; conditions: for EC50: Human immunodeficiency virus 1, read-out: Antiviral Potency
Procedure: as §1

F227C mutant = assay: as above; type: cell-based, HIV-1; conditions: for EC50: Human immunodeficiency virus 1, read-out: Antiviral Potency
Procedure: as §1

V106I/F227C mutant = assay: as above; type: cell-based, HIV-1; conditions: for EC50: Human immunodeficiency virus 1, read-out: Antiviral Potency
Procedure: as §1

A98G/F227C mutant = assay: as above; type: cell-based, HIV-1; conditions: for EC50: Human immunodeficiency virus 1, read-out: Antiviral Potency (nM)
From the text: (§2) Common doravirine-associated mutants containing F227C substitution were derived from SDM.

V106I/F227C/H221Y mutant = assay: as above; type: cell-based, HIV-1; conditions: for EC50: Human immunodeficiency virus 1, read-out: Antiviral Potency
From the text: as §2

V106M/F227C mutant = assay: as above; type: cell-based, HIV-1; conditions: for EC50: Human immunodeficiency virus 1, read-out: Antiviral Potency
From the text: as §2

HIV-1 [2] = conditions: escalating concentrations of DOR; cited from earlier work
K103N mutant virus [3] = conditions: 100% normal human serum (NHS), read-out: EC50 suppressing replication; cited from earlier work
K103N/Y181C mutant virus [4] = conditions: 100% normal human serum (NHS), read-out: EC50 suppressing replication; cited from earlier work
Y181C mutant virus [5] = conditions: 100% normal human serum (NHS), read-out: EC50 suppressing replication; cited from earlier work
wild type (WT) virus = conditions: 100% normal human serum (NHS), read-out: EC50 suppressing replication; cited from earlier work
[6] = tested on: clinical-NNRTI-associated mutant viruses (a total of 96 viruses); conditions: 96 clinical NNRTI-associated mutant viruses; cited from earlier work
[7] = tested on: other prevalent NNRTI-associated mutants; assay: Inhibitory quotients against other NNRTI-associated mutants; type: cell-based, HIV-1; conditions: with the exception of Y188L
Procedure: (§3) Inhibitory quotients (IQs) were calculated by determining the ratio of the clinical trough concentration over the antiviral EC50 of various viruses. IQs have been employed to predict the potential efficacy of anti-viral agents.

K103N/Y181C mutant virus [8] = assay: Suppression of virus replication in vitro in 100% normal human serum; inhibitory quotient; type: cell-based, HIV-1; conditions: ratio of clinical trough concentration over antiviral EC50
Procedure: (§4) In addition, the susceptibility of a broader array of clinical-NNRTI-associated mutant viruses (a total of 96 viruses) to doravirine and other benchmark NNRTIs was investigated. […] See Lai, Ming-Tain, et al., In Vitro Characterization of MK-1439, a Novel HIV-1 Nonnucleoside Reverse Transcriptase Inhibitor. Antimicrobial Agents and Chemotherapy 58(3): 1652-1663, 2014.
as §3

K103N mutant virus [9] = assay: as above; type: cell-based, HIV-1; conditions: ratio of clinical trough concentration over antiviral EC50
Procedure: as §4, §3

Y181C mutant virus [10] = assay: as above; type: cell-based, HIV-1; conditions: ratio of clinical trough concentration over antiviral EC50
Procedure: as §4, §3

[11] = tested on: Common doravirine-associated mutants containing F227C substitution; assay: Susceptibility of the SDM derived doravirine-associated mutants as a group; type: cell-based, HIV-1
Procedure: Site-directed mutagenesis (SDMs) were generated for the substitutions V1061/F227C, V1061/H221Y/F227C, A98G/V1061/H221Y/F227C, and V106M/F227C and their susceptibility to NNRTIs was evaluated. Most of the mutants conferred a high level of resistance to DOR with a fold change (FC)>100 (FC: mutantEC50 versus WTEC50).
FIG. 1. Susceptibility of SDM derived DOR-resistant clinical mutants to NRTIs. […] In contrast, the mutants are hypersusceptible to EFdA with 2-5 fold increase in susceptibility except the quardruple mutant.
as §1

HIV-1 [12] = assay: Proof of concept study in HIV-1 infected patients; type: in vivo, human; conditions: single dose as low as 0.5 mg
Procedure: EFdA was tested in HIV-1 infected patients for a proof of concept study.

HIV = conditions: compared with EFddA lacking a 3′-OH; cited from earlier work

| SMILES | Fold-change (EC50mut/WT EC50wt) (WT virus) | EC50 (WT virus) [µM] | Fold-change (EC50mut/WT EC50wt) [1] | EC50 [1] [µM] | Fold-change (EC50mut/WT EC50wt) (F227C mutant) | EC50 (F227C mutant) [µM] | Fold-change (EC50mut/WT EC50wt) (V106I/F227C mutant) | EC50 (V106I/F227C mutant) [µM] | EC50 (A98G/F227C mutant) [nM] | EC50 (V106I/F227C/H221Y mutant) [µM] | EC50 (V106M/F227C mutant) [µM] | Inhibitory quotient (IQ) (K103N/Y181C mutant virus [8]) | Inhibitory quotient (IQ) (K103N mutant virus [9]) | Inhibitory quotient (IQ) (Y181C mutant virus [10]) | other results |
| --- | --- | --- | --- | --- | --- | --- | --- | --- | --- | --- | --- | --- | --- | --- | --- |
| Nc1ccn([C@@H]2CS[C@H](CO)O2)c(=O)n1 [3TC, lamivudine, reference compound] | 1.0 | 0.601 ± 0.142 | 1.93 | 1.16 ± 0.314 | 2.26 | 1.36 ± 0.094 | 1.15 | 0.692 ± 0.212 | 809 ± 146 | 0.758 ± 0.244 | 0.771 ± 0.062 |  |  |  |  |
| Cn1c(Cn2ccc(C(F)(F)F)c(Oc3cc(Cl)cc(C#N)c3)c2=O)n[nH]c1=O [Doravirine] |  |  |  |  |  |  |  |  |  |  |  | 25 | 39 | 27 | mutations emerging in resistance selection (HIV-1 [2]): V106A mutant led two mutation pathways, followed by the emergence of F227L and L234I substitutions; EC50 (K103N mutant virus [3]): 0.021 µM; EC50 (K103N/Y181C mutant virus [4]): 0.033 µM; EC50 (Y181C mutant virus [5]): 0.031 µM; EC50 (wild type (WT) virus): 0.012 µM; mutant profile versus benchmark NNRTIs [6]: superior overall to that of efavirenz (EFV) and comparable to that of etravirine (ETR) and rilpivirine (RPV); IQ values compared with RPV and EFV [7]: higher IQ values than RPV and EFV |
| O=C1Nc2ccc(Cl)cc2[C@@](C#CC2CC2)(C(F)(F)F)O1 [EFV, efavirenz] |  |  |  |  |  |  |  |  |  |  |  | 1.9 | 2.5 | 60 |  |
| C#C[C@]1(CO)O[C@@H](n2cnc3c(N)nc(F)nc32)C[C@@H]1O [EFdA, 4′-ethynyl-2-fluoro-2′-deoxyadenosine] | 1.0 | 0.00081 ± 2.9e-05 | 1.00 | 0.00081 ± 0.000124 | 0.18 | 0.00015 ± 2.6e-05 | 0.44 | 0.00035 ± 4.8e-05 | 0.15 ± 0.026 | 0.0004 ± 7.5e-05 | 0.0003 ± 4.8e-05 |  |  |  | susceptibility / potency of mutants compared with WT virus ([11]; mutants containing F227C substitution): better potency compared to WT virus; fold increase in susceptibility (hypersusceptible) ([11]; {}): 2-5 fold; duration of suppression of HIV replication (HIV-1 [12]): at least seven days; antiviral activity relative to EFddA (HIV): 10,000 times; Fold-change (EC50mut/WT EC50wt) (A98G/F227C mutant; A98G/F227C): 0.18; Fold-change (EC50mut/WT EC50wt) (V106I/F227C/H221Y mutant): 0.49; Fold-change (EC50mut/WT EC50wt) (V106M/F227C mutant): 0.37 |
| Cc1cc(/C=C/C#N)cc(C)c1Nc1ccnc(Nc2ccc(C#N)cc2)n1 [RPV, rilpivirine] |  |  |  |  |  |  |  |  |  |  |  | 0.8 | 4.6 | 1.4 |  |
